Laboratory results from patent US12344610B2, “APOL1 inhibitors and methods of use” (Maze Therapeutics, Inc., priority 2022, dated 2025).

Experiments:
APOL1 G2 = target: T1, APOL1 G2 (Homo sapiens, UniProt O14791, DEL388-389); assay: APOL1-mediated calcium transport (calcium influx) assay, HEK T-REx/GCaMP6f/APOL1 G2 K6.3 cells, FLIPR TETRA; type: cell-based; conditions: prevention of calcium influx; geometric mean of at least 2 assay runs; † = average of a technical replicate from a single assay run
T1 construct: expressed in transfected cells; host or cells: HEK293 T-REx clonal line stably expressing GCaMP6f (HEK T-REx/GCaMP6f/APOL1 G2 K6.3), doxycycline induced
T1 sequence (O14791 with tags, fused parts or gaps DEL388-389): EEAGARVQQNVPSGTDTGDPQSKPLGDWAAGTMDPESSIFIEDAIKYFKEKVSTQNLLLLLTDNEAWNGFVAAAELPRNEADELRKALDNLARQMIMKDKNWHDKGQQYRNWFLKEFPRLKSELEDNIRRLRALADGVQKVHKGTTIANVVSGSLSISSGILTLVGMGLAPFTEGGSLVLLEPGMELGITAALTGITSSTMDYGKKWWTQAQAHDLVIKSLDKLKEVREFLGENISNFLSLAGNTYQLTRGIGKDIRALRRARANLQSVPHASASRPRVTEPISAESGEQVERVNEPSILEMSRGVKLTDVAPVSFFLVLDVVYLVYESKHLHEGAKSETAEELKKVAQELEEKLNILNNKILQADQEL
Procedure, shortened: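 A HEK293 T-REx clone stably expressing GCaMP6f had APOL1 G2 induced with doxycycline (20 ng/mL solution added) for 6 h. Cells were then washed into Ca2+-free Tyrode's buffer (pH 7.4) and preincubated with compounds (duplicate 8-point) for 10 min at room temperature. Ca2+ injection to 5 mM final produced FLIPR GCaMP fluorescence, giving AC50 for influx inhibition (geometric mean, ≥2 runs).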

[1] = test system: HEK293 clonal cell line overexpressing APOL1 G1; assay: APOL1 G1 HEK293 cell rescue assay (Example B3); type: cell-based; conditions: Homo sapiens, HEK293, HEK293 clonal line overexpressing APOL1 G1; geometric mean of at least 2 runs; † = single run; ¥ = concentration at 50% rescue estimated (no sigmoidal curve)
Procedure, shortened: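 Rescue of cell death caused by APOL1 G1 overexpression was measured in a clonal HEK293 line. Compounds were tested in duplicate on one plate, and EC50s were geometric means across at least two runs on different days. Some values are estimated 50%-rescue concentrations where curve fitting failed.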

Compound	AC50 (APOL1 G2)	EC50 [1]
CC(C)N1C(=O)CCc2cc(OCCN3CCC4(CC3)C(=O)Nc3ccc(C#N)cc34)ccc21 [Compound 96, 2-oxo-1′-(2-{[2-oxo-1-(propan-2-yl)-1,2,3,4-tetrahydroquinolin-6-yl]oxy}ethyl)-1,2-dihydrospiro[indole-3,4′-piperidine]-5-carbonitrile]	552 nM	148 nM
CC(C)N1C(=O)CCc2cc(OCCN3CCC4(CC3)C(=O)Nc3ccc(Cl)cc34)ccc21 [Compound 97, 5-chloro-1′-(2-{[2-oxo-1-(propan-2-yl)-1,2,3,4-tetrahydroquinolin-6-yl]oxy}ethyl)-1,2-dihydrospiro[indole-3,4′-piperidin]-2-one]	823 nM	143 nM
CS(=O)(=O)N(CCO)c1ccc(OCCN2CCC3(CC2)C(=O)Nc2ccc(Cl)cc23)cc1 [Compound 98, N-[4-(2-{5-chloro-2-oxo-1,2-dihydrospiro[indole-3,4′-piperidin]-1′-yl}ethoxy)phenyl]-N-(2-hydroxyethyl)methanesulfonamide]	600 nM	183 nM
